Data published in the supplement of paper PMC10307832.

Key:
Experiment in all cases: relative viability (nuclei count vs DMSO), 5 days (fraction); higher = more cells survive
[1] = compound: C1=CC2=NC=CN=C2C=C1/C=C/3\C(=O)NC(=O)S3 + CCNC(=O)c1noc(-c2cc(C(C)C)c(O)cc2O)c1-c1ccc(CN2CCOCC2)cc1 [Luminespib] (partner 0.01 µM)
In short: (§1)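 Cells from lung cancer lines were seeded into 1536-well plates and, one day later, dosed by pin tool. Treatments were either a single drug or a fixed dose of an anchor drug with five library-drug doses (not always all listed) in √10 steps. After 5 days, nuclei were stained in a one-step fixation (final 0.05% Triton X-100, 1% formaldehyde, 1 ug/ml Hoechst) and counted on 4× images, and relative viability is the treated-to-vehicle nuclei ratio, as the median of duplicate plates.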

[2] = compound: C1=CC2=NC=CN=C2C=C1/C=C/3\C(=O)NC(=O)S3 + O=C(c1cc(Cc2n[nH]c(=O)c3ccccc23)ccc1F)N1CCN(C(=O)C2CC2)CC1 [Olaparib] (partner 8 µM)
In short: as §1

[3] = compound: CCN1CCN(c2ccc(Nc3cc(N(C)C(=O)Nc4c(Cl)c(OC)cc(OC)c4Cl)ncn3)cc2)CC1 [BGJ398] + CS(=O)(=O)N1CCN(Cc2cc3nc(-c4cccc5[nH]ncc45)nc(N4CCOCC4)c3s2)CC1 [Pictilisib] (partner 1 µM)
In short: as §1

[4] = compound: CCN1CCN(c2ccc(Nc3cc(N(C)C(=O)Nc4c(Cl)c(OC)cc(OC)c4Cl)ncn3)cc2)CC1 [BGJ398] + NC(=O)Nc1cc(-c2cccc(F)c2)sc1C(=O)N[C@H]1CCCNC1 [AZD7762] (partner 0.2 µM)
In short: as §1

Cell Line	relative viability ([1]; first compound 0.02 µM)	relative viability ([1]; first compound 0.06325 µM)	relative viability ([1]; first compound 0.2 µM)	relative viability ([1]; first compound 0.6325 µM)	relative viability ([1]; first compound 2 µM)	relative viability ([2]; first compound 0.02 µM)	relative viability ([2]; first compound 0.06325 µM)	relative viability ([2]; first compound 0.2 µM)	relative viability ([2]; first compound 0.6325 µM)	relative viability ([2]; first compound 2 µM)	relative viability ([3]; first compound 0.01 µM)	relative viability ([3]; first compound 0.03162 µM)	relative viability ([3]; first compound 0.1 µM)	relative viability ([3]; first compound 0.3162 µM)	relative viability ([3]; first compound 1 µM)	relative viability ([4]; first compound 0.01 µM)	relative viability ([4]; first compound 0.03162 µM)	relative viability ([4]; first compound 0.1 µM)	relative viability ([4]; first compound 0.3162 µM)	relative viability ([4]; first compound 1 µM)
NCI-H1975	0.289	0.117	0.202	0.149	0.174	0.728	0.743	0.805	0.768	0.794	0.296	0.296	0.269	0.321	0.252	0.767	0.711	0.78	0.666	0.606
CAL-12T	0.456	0.417	0.686	0.623	0.234	0.64	0.784	0.692	0.779	0.672	0.423	0.441	0.532	0.409	0.342	0.656	0.664	0.698	0.636	0.625
NCI-H1623	0.379	0.431	0.474	0.47	0.335	–	–	–	–	–	–	–	–	–	–	–	–	–	–	–
HCC-44	1	0.829	1.06	1.04	0.868	0.9	1.07	0.924	0.965	0.945	0.544	0.671	0.682	0.602	0.401	0.98	1	1.01	1.02	0.862
EKVX	0.846	0.636	0.831	0.839	0.776	0.668	0.828	0.824	0.812	0.838	0.437	0.395	0.479	0.406	0.46	0.778	0.772	0.746	0.686	0.634
NCI-H1651	0.848	0.842	0.77	0.753	0.842	0.181	0.154	0.183	0.178	0.188	0.46	0.625	0.574	0.507	0.546	0.465	0.442	0.478	0.374	0.471
NCI-H1944	0.667	0.515	0.75	0.695	0.656	0.384	0.391	0.333	0.412	0.418	0.36	0.348	0.323	0.333	0.311	0.561	0.536	0.484	0.439	0.516
NCI-H1703	–	–	–	–	–	0.428	0.405	0.434	0.27	0.322	0.233	0.198	0.21	0.218	0.242	0.117	0.136	0.111	0.122	0.123
Calu-6	–	–	–	–	–	0.602	0.621	0.597	0.592	0.568	0.848	0.987	0.935	0.898	0.991	–	–	–	–	–
EBC-1	–	–	–	–	–	0.626	0.84	0.754	0.76	0.723	0.41	0.414	0.357	0.515	0.451	–	–	–	–	–
SW 1573	0.492	0.267	0.222	0.762	0.208	0.501	0.65	0.434	0.405	0.387	0.485	0.486	0.495	0.438	0.611	–	–	–	–	–
A-427	0.978	0.958	1	0.842	0.991	0.71	0.83	0.716	0.716	0.634	0.622	0.644	0.506	0.334	0.158	0.688	0.685	0.599	0.43	0.565
NCI-H2347	0.38	0.288	0.548	0.354	0.431	0.528	0.583	0.553	0.635	0.543	0.615	0.964	0.591	0.593	0.918	0.811	0.801	0.837	0.814	0.851
NCI-H1355	0.687	0.516	0.751	0.631	0.608	0.656	0.766	0.77	0.699	0.726	0.396	0.477	0.5	0.496	0.271	0.697	0.818	0.748	0.677	0.713
NCI-H358	0.265	0.35	0.347	0.224	0.182	0.559	0.663	0.65	0.667	0.419	0.305	0.403	0.358	0.315	0.332	–	0.473	0.591	0.507	0.725
PC-3 [JPC-3]	0.704	0.767	0.732	0.687	0.813	1.07	1.18	1.11	1.18	1.13	0.716	–	0.708	0.492	0.689	0.853	–	0.781	–	0.837
NCI-H2228	0.157	0.132	0.152	0.156	0.137	0.666	0.599	0.616	0.654	0.649	0.342	0.56	0.531	0.484	0.365	–	–	–	–	–
HOP-62	0.725	0.831	0.904	0.9	0.922	0.481	0.389	0.357	0.452	0.424	0.731	0.768	0.649	1.16	0.669	0.651	0.703	0.829	0.601	0.916
HARA	0.811	0.643	0.706	0.742	0.797	0.899	0.54	0.687	1.06	0.615	0.346	0.426	0.371	0.283	0.185	0.429	0.418	0.461	0.373	0.334
NCI-H838	0.295	0.446	0.267	0.26	0.324	0.731	0.872	0.795	0.71	0.636	0.436	0.393	0.417	0.338	0.277	0.861	0.915	1.04	0.782	0.756

Cell Line	relative viability ([1]; first compound 0.02 µM)	relative viability ([1]; first compound 0.06325 µM)	relative viability ([1]; first compound 0.2 µM)	relative viability ([1]; first compound 0.6325 µM)	relative viability ([1]; first compound 2 µM)	relative viability ([2]; first compound 0.02 µM)	relative viability ([2]; first compound 0.06325 µM)	relative viability ([2]; first compound 0.2 µM)	relative viability ([2]; first compound 0.6325 µM)	relative viability ([2]; first compound 2 µM)	relative viability ([3]; first compound 0.01 µM)	relative viability ([3]; first compound 0.03162 µM)	relative viability ([3]; first compound 0.1 µM)	relative viability ([3]; first compound 0.3162 µM)	relative viability ([3]; first compound 1 µM)	relative viability ([4]; first compound 0.01 µM)	relative viability ([4]; first compound 0.03162 µM)	relative viability ([4]; first compound 0.1 µM)	relative viability ([4]; first compound 0.3162 µM)	relative viability ([4]; first compound 1 µM)
NCI-H1755	0.433	0.329	0.606	0.244	0.352	0.774	0.86	0.886	0.872	0.908	0.443	0.446	0.361	0.349	0.285	0.487	0.496	0.384	0.339	0.399
HCC-78	–	–	–	–	–	0.792	0.72	0.786	0.861	0.619	0.184	0.217	0.188	0.194	0.221	0.609	0.536	0.557	0.61	0.608
IA-LM	–	–	–	–	–	0.404	1.02	0.797	0.836	0.871	0.343	0.39	0.334	0.391	0.311	–	–	–	–	–
COR-L23	0.684	0.842	0.77	0.581	0.652	0.273	0.383	0.323	0.401	0.36	0.691	0.826	0.788	0.808	0.87	–	–	–	–	–
NCI-H2023	0.701	0.713	0.773	0.757	0.745	0.428	0.461	0.508	0.492	0.498	0.226	0.219	0.173	0.244	0.16	–	–	–	–	–
COR-L 105	0.727	0.997	0.816	0.695	0.618	0.674	0.711	0.701	0.819	0.723	0.314	0.442	0.417	0.328	0.387	–	–	–	–	–
NCI-H520	0.204	0.22	0.257	0.191	0.248	0.283	0.321	0.352	0.298	0.345	0.239	0.257	0.209	0.169	0.194	–	–	–	–	–
SK-LU-1	0.203	0.2	0.19	0.202	0.221	0.477	0.42	0.488	0.521	0.465	0.547	0.61	0.497	0.531	0.424	–	–	–	–	–
NCI-H522	1.06	1.09	1.18	1.05	0.956	0.593	0.561	0.723	0.677	0.545	–	–	–	–	–	0.864	0.686	0.812	0.836	0.853
NCI-H1299	–	–	–	–	–	1.01	0.961	1.01	0.928	1.01	0.742	0.807	0.847	0.827	0.965	–	–	–	–	–
NCI-H1650	0.221	0.194	0.209	0.209	0.171	0.689	0.825	0.845	0.735	0.927	0.497	0.394	0.416	0.153	0.316	–	–	–	–	–
NCI-H2009	0.973	0.995	1.04	1.05	1.05	0.685	0.715	0.685	0.739	0.703	0.803	0.955	0.731	0.842	0.847	–	–	–	–	–
NCI-H1648	–	–	–	–	–	0.795	0.547	0.886	–	0.563	–	–	–	–	–	0.873	–	0.759	0.55	0.387
SK-MES-1	0.645	0.876	0.877	0.779	0.852	0.677	0.793	0.846	0.796	0.657	0.401	0.415	0.431	0.383	0.335	–	–	–	–	–
NCI-H2342	0.721	0.672	0.756	0.601	0.636	0.396	0.403	0.449	0.415	0.373	–	–	–	–	–	0.513	0.565	0.542	0.496	0.437
SW 900	0.163	0.176	0.173	0.223	0.21	0.789	0.769	0.884	–	0.727	–	–	–	–	–	0.757	0.514	0.572	0.36	0.532
HCC-366	–	–	–	–	–	0.318	–	0.374	0.351	0.373	0.0862	0.146	0.137	0.277	0.0758	0.235	0.301	0.281	0.276	0.252
A549	–	–	–	–	–	0.284	0.133	0.366	0.335	0.12	0.486	0.475	0.453	0.535	0.596	–	–	–	–	–
NCI-H661	0.958	0.961	0.937	0.943	1.05	0.682	0.733	0.733	0.746	0.715	0.361	0.46	0.388	0.382	0.348	–	–	–	–	–
NCI-H1563	0.512	0.469	0.514	0.438	0.509	–	–	–	–	–	0.66	0.612	0.512	0.479	0.475	–	–	–	–	–
